Experimental data as given in ChEMBL document CHEMBL6083286, “Discovery of ERD-12310A as an Exceptionally Potent and Orally Efficacious PROTAC Degrader of Estrogen Receptor α (ERα)” (J Med Chem, 2024).
pIC50, pKi: −log10 of the molar value. Activity calls are given as the source filed them. The rule behind the calls is not given here.

What was measured:
[1] = Stability in mouse plasma assessed as half life; assay type: ADME, cell-free
[2] = Stability in rat plasma assessed as half life; assay type: ADME, cell-free
[3] = target: T1, Protein cereblon/Estrogen receptor (Homo sapiens, UniProt P03372+Q96SW2); experiment: PROTAC activity at CRBN/ERalpha in human MCF7 cells assessed as reduction in ERalpha protein level measured after 12 hrs by Western blot analysis relative to control; assay type: cell-based
T1 sequence (Q96SW2 whole entry, looked up, one chain of several): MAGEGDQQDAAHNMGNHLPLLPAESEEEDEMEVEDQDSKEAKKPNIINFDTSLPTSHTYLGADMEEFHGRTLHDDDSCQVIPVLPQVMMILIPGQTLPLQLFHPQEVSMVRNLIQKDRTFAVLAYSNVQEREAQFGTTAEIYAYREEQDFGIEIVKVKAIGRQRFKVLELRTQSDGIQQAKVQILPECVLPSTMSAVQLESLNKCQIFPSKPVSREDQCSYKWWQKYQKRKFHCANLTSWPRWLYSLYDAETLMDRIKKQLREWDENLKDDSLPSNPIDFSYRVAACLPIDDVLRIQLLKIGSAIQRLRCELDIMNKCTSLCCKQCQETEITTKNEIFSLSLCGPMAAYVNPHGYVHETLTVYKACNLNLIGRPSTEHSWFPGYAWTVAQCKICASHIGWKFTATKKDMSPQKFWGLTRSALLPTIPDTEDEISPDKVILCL

Estrogen receptor = target: T2, Estrogen receptor (Homo sapiens, UniProt P03372); experiment: Binding affinity to human ERalpha receptor assessed as inhibition constant
T2 sequence (P03372 whole entry): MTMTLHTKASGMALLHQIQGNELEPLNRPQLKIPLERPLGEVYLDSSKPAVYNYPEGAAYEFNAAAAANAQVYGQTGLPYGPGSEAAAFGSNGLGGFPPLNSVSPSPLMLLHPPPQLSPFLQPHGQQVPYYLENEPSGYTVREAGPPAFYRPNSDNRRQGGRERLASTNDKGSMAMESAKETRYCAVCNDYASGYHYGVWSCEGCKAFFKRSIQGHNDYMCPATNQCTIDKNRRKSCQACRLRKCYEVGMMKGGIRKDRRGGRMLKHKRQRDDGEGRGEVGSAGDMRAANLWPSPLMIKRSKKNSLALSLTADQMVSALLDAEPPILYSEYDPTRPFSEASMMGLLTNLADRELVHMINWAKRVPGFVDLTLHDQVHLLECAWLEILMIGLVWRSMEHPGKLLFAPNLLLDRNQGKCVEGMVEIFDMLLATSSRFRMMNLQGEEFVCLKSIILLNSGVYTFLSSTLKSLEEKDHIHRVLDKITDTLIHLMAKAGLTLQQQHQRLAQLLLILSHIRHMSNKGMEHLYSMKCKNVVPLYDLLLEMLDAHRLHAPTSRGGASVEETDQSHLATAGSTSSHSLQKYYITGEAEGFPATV

[4] = Half life in rat at 3 mg/kg, po or 1 mg/kg, iv measured upto 24 hrs by LC-MS/MS analysis; assay type: ADME, organism-based; conditions: in vivo
[5] = Half life in dog at 3 mg/kg, po or 1 mg/kg, iv measured upto 24 hrs by LC-MS/MS analysis; assay type: ADME, organism-based, Canis lupus familiaris; conditions: in vivo
[6] = Cmax in mouse at 3 mg/kg, po or 1 mg/kg, iv measured upto 24 hrs by LC-MS/MS analysis; assay type: ADME, organism-based; conditions: in vivo
[7] = AUC (0 to infinity) in rat at 3 mg/kg, po or 1 mg/kg, iv measured upto 24 hrs by LC-MS/MS analysis; assay type: ADME, organism-based; conditions: in vivo
[8] = Volume of distribution at steady state in rat at 3 mg/kg, po or 1 mg/kg, iv measured upto 24 hrs by LC-MS/MS analysis; assay type: ADME, organism-based; conditions: in vivo
[9] = Volume of distribution at steady state in dog at 3 mg/kg, po or 1 mg/kg, iv measured upto 24 hrs by LC-MS/MS analysis; assay type: ADME, organism-based, Canis lupus familiaris; conditions: in vivo
[10] = Stability in dog plasma assessed as half life; assay type: ADME, cell-free, Canis lupus familiaris
Cytochrome P450 2C9 = Cytochrome P450 2C9 (Homo sapiens, UniProt P11712); experiment: Inhibition of CYP2C9 in human liver microsomes incubated for 5 mins in presence of NADPH by LC-MS/MS analysis; assay type: ADME, Microsome
Chain of Cytochrome P450 2C9 (P11712 whole entry): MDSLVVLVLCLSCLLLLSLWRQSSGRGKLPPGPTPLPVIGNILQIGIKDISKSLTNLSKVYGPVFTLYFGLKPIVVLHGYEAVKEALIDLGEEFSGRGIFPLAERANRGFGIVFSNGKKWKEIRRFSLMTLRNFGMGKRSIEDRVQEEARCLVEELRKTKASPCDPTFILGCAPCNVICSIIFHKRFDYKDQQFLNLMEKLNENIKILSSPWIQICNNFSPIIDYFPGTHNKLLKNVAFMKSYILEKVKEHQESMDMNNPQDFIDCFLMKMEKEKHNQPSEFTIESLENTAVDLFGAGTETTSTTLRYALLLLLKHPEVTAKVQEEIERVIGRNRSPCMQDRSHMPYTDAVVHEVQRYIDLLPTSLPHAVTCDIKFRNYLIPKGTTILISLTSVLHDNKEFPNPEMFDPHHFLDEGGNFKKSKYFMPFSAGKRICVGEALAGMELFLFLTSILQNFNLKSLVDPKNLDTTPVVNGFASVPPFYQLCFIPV

Cytochrome P450 2D6 = Cytochrome P450 2D6 (Homo sapiens, UniProt P10635); experiment: Inhibition of CYP2D6 in human liver microsomes incubated for 5 mins in presence of NADPH by LC-MS/MS analysis; assay type: ADME, Microsome
Chain of Cytochrome P450 2D6 (P10635 whole entry): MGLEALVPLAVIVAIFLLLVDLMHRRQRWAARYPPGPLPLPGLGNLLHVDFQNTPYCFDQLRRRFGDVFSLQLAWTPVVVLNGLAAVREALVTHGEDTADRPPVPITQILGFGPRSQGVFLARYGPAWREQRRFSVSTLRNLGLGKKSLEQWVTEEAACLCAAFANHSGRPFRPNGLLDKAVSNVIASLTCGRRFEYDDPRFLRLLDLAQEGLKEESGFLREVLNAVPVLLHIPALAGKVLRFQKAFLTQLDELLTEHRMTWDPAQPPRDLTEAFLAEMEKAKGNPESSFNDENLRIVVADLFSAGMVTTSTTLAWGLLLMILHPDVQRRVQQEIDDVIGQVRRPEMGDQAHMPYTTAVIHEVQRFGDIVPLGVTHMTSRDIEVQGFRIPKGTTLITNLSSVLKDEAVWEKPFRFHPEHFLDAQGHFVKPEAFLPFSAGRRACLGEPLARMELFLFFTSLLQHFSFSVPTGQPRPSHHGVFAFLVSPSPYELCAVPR

Cytochrome P450 3A4 [11] = target: T3, Cytochrome P450 3A4 (Homo sapiens, UniProt P08684); experiment: Inhibition of CYP3A4 in human liver microsomes using midazolam as substrate preincubated for 5 mins followed by NADPH addition and measured after 10 mins by LC-MS/MS analysis; assay type: ADME, Microsome
T3 sequence (P08684 whole entry): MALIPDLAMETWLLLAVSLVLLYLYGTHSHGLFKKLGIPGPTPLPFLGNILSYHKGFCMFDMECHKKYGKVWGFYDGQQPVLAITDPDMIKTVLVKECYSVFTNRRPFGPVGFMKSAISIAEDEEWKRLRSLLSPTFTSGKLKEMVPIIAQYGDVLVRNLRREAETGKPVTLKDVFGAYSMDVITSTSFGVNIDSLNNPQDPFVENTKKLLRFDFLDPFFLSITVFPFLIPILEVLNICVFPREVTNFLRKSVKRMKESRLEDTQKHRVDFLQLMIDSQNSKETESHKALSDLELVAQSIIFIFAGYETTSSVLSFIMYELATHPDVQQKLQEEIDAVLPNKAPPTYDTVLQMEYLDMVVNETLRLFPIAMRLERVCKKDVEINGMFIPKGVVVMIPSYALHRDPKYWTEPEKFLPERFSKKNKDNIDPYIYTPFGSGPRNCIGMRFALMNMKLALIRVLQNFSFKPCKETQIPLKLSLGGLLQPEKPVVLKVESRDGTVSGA

Cytochrome P450 3A4 [12] = target: T3, Cytochrome P450 3A4; experiment: Inhibition of CYP3A4 in human liver microsomes using testosterone as substrate preincubated for 5 mins followed by NADPH addition and measured after 10 mins by LC-MS/MS analysis; assay type: ADME, Microsome
[13] = Plasma protein binding in human; assay type: ADME, cell-free
[14] = Plasma protein binding in mouse; assay type: ADME, cell-free
[15] = target: T1, Protein cereblon/Estrogen receptor; experiment: PROTAC activity at CRBN/ERalpha in human MCF7 cells assessed as reduction in ERalpha protein level at 1 nM measured at 4 hrs by Western blot analysis; assay type: cell-based
[16] = target: T1, Protein cereblon/Estrogen receptor; experiment: PROTAC activity at CRBN/ERalpha in human T47D cells assessed as reduction in ERalpha protein level at 3 nM measured at 4 hrs by Western blot analysis; assay type: cell-based
[17] = target: T1, Protein cereblon/Estrogen receptor; experiment: PROTAC activity at CRBN/ERalpha in human MCF7 cells assessed as reduction in ERalpha protein level at 5 nM measured for 4 hrs in presence of PR-171 by Western blot analysis; assay type: cell-based
[18] = target: T1, Protein cereblon/Estrogen receptor; experiment: PROTAC activity at CRBN/ERalpha in human MCF7 cells assessed as reduction ER level at 100 nM measured for 5 hrs by Western blot analysis; assay type: cell-based
MCF7 [19] = experiment: Antiproliferative activity against human MCF7 cells assessed as cell growth inhibition incubated for 4 days by crystal violet staining based assay; assay type: functional; conditions: time 4.0 day
[20] = tested on: Protein cereblon/Estrogen receptor (Homo sapiens), P03372+Q96SW2 [Y537S]; experiment: In vivo PROTAC activity at CRBN/ESR1 Y537S mutant in SCID mouse xenografted with human MCF7 cells assessed as reduction in ESR1 Y537S level in tumor at 10 mg/kg, po measured after 24 hrs by Western blot analysis; assay type: functional, organism-based; set-up: scale not given: the % may be the effect or the level left
[21] = tested on: Protein cereblon/Estrogen receptor (Homo sapiens), P03372+Q96SW2 [Y537S]; experiment: In vivo PROTAC activity at CRBN/ESR1 Y537S mutant in SCID mouse xenografted with human MCF7 cells assessed as reduction in ESR1 Y537S level in tumor at 10 to 30 mg/kg, po administered once daily for 3 days measured after 24 hrs by Western blot analysis; assay type: functional, organism-based; set-up: scale not given: the % may be the effect or the level left; conditions: dose 10-30 mg/kg, time […]
MCF7 [22] = experiment: Antitumor activity against human MCF7 cells xenografted in SCID mouse assessed as tumor growth inhibition at 10 mg/kg, po administered for 41 to 76 days; assay type: functional; conditions: time 41-76 day, read-out: TGI
MCF7 [23] = experiment: Antitumor activity against human MCF7 cells expressing ESR1 Y537S mutant xenografted in SCID mouse assessed as tumor growth inhibition at 10 mg/kg, po administered 5 days a week for 5 weeks; assay type: functional; conditions: MCF7, 840 h, read-out: TGI
MCF7 [24] = experiment: Antitumor activity against human MCF7 cells expressing ESR1 Y537S mutant xenografted in SCID mouse assessed as tumor growth inhibition at 30 mg/kg, po administered 5 days a week for 7 weeks; assay type: functional; conditions: MCF7, 1176 h, read-out: TGI
[25] = Drug concentration in SCID mouse plasma at 10 mg/kg, po administered once daily measured at 24 hrs by LC-MS/MS analysis; assay type: ADME, organism-based
[26] = Drug concentration in SCID mouse plasma at 10 mg/kg, po administered once daily for 3 days measured after 24 hrs by LC-MS/MS analysis; assay type: ADME, organism-based
[27] = Drug concentration in SCID mouse tumor at 10 mg/kg, po administered once daily for 3 days measured after 24 hrs by LC-MS/MS analysis; assay type: ADME, organism-based, Neoplasm
[28] = Drug concentration in SCID mouse tumor at 30 mg/kg, po administered once daily for 3 days measured after 24 hrs by LC-MS/MS analysis; assay type: ADME, organism-based, Neoplasm; conditions: read-out: Ct

## O=C1CC[C@H](N2Cc3c(ccc4c3OCC43CCN(C[C@@H]4CCC5(CCN(c6ccc([C@@H]7c8ccc(O)cc8CC[C@@H]7c7ccccc7)cc6)CC5)OC4)CC3)C2=O)C(=O)N1
[1]
  t1/2: > 240 min
[2]
  t1/2: > 240 min
[3]
  Emax: 103%
Estrogen receptor
  pKi: 9.02
[4]
  t1/2: 5.6 h
[5]
  t1/2: 23.2 h
[6]
  Cmax: 58.6 ng/mL
[7]
  AUC: 583 ng·h/mL
[8]
  Vdss: 1.9 L/kg
[9]
  Vdss: 3.2 L/kg
[10]
  t1/2: > 240 min
Cytochrome P450 2C9
  pIC50: < 5.00
Cytochrome P450 2D6
  pIC50: < 5.00
Cytochrome P450 3A4 [11]
  pIC50: < 5.00
Cytochrome P450 3A4 [12]
  pIC50: < 5.00
[13]
  PPB: 98.9%
[14]
  PPB: 99%
[15]
  Activity: Active
[16]
  Activity: Active
[17]
  Activity: inactive
[18]
  Activity: No effect
MCF7 [19]
  Activity: Active
[20]
  Activity: 71%
[21]
  Activity: 74%
MCF7 [22]
  inhibition in vivo at 10 mg/kg: 94%
MCF7 [23]
  inhibition in vivo at 10 mg/kg: 75%
MCF7 [24]
  inhibition in vivo at 30 mg/kg: 100%
[25]
  concentration at 24 h: 7 ng/mL
[26]
  concentration at 96 h: 18 ng/mL
[27]
  concentration at 96 h: 294 ng/mL
[28]
  concentration at 96 h: 1030 ng/mL
